What was measured:
Assay in all cases: relative viability (nuclei count vs DMSO), 5 days (fraction); higher = more cells survive
[1] = compound: CC1=CC(=CC=C1)NC2=NC(=CS2)C3=CC=NC=C3 + CC(=O)Nc1cccc(-n2c(=O)n(C3CC3)c(=O)c3c(Nc4ccc(I)cc4F)n(C)c(=O)c(C)c32)c1 [Trametinib] (partner 0.02 µM)
Summary of the method: (§1)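 The day after seeding in 1536-well plates, lung cancer cell lines were treated by pin tool with a single drug, or with a fixed anchor-drug dose together with five library-drug doses (not always all listed) in √10 steps. After 5 days, a combined fix-and-stain solution (final 0.05% Triton X-100, 1% formaldehyde, 1 ug/ml Hoechst) was added. Nuclei counted on 4× images gave relative viability as treated counts over vehicle counts, reported as the median of duplicate plates.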

[2] = compound: CC1=CC(=CC=C1)NC2=NC(=CS2)C3=CC=NC=C3 + CC(=O)c1c(C)c2cnc(Nc3ccc(N4CCNCC4)cn3)nc2n(C2CCCC2)c1=O [Palbociclib] (partner 0.5 µM)
Summary of the method: as §1

[3] = compound: CC1=CC(=CC=C1)NC2=NC(=CS2)C3=CC=NC=C3 + CC1(C)CCC(c2ccc(Cl)cc2)=C(CN2CCN(c3ccc(C(=O)NS(=O)(=O)c4ccc(N[C@H](CCN5CCOCC5)CSc5ccccc5)c(S(=O)(=O)C(F)(F)F)c4)cc3)CC2)C1 [Navitoclax] (partner 0.5 µM)
Summary of the method: as §1

[4] = compound: CC1=CC(=CC=C1)NC2=NC(=CS2)C3=CC=NC=C3 + C[C@]1(O)C[C@@H](c2nc(-c3ccc4ccc(-c5ccccc5)nc4c3)c3c(N)nccn32)C1 [Linsitinib] (partner 1 µM)
Summary of the method: as §1

HCC-366 showed a relative viability ([1]; first compound 0.08 µM) of 0.357, a relative viability ([1]; first compound 0.253 µM) of 0.273 and a relative viability ([1]; first compound 0.8 µM) of 0.183. For the same cell line, the relative viability ([1]; first compound 2.53 µM) was 0.214, the relative viability ([1]; first compound 8 µM) was 0.168 and the relative viability ([2]; first compound 0.08 µM) was 0.372. The relative viability ([2]; first compound 0.253 µM) was 0.343, the relative viability ([2]; first compound 0.8 µM) was 0.274 and the relative viability ([2]; first compound 2.53 µM) was 0.275. The relative viability ([2]; first compound 8 µM) was 0.257, the relative viability ([3]; first compound 0.08 µM) was 0.934 and the relative viability ([3]; first compound 0.253 µM) was 1.04. For the same cell line, the relative viability ([3]; first compound 0.8 µM) was 1.04, the relative viability ([3]; first compound 2.53 µM) was 0.884 and the relative viability ([3]; first compound 8 µM) was 0.949. It also gave a relative viability ([4]; first compound 0.08 µM) of 0.454, a relative viability ([4]; first compound 0.253 µM) of 0.593 and a relative viability ([4]; first compound 0.8 µM) of 0.501. It also gave a relative viability ([4]; first compound 2.53 µM) of 0.563 and a relative viability ([4]; first compound 8 µM) of 0.399.
In the case of HCC-827, the relative viability ([1]; first compound 0.08 µM) is reported as 0.497, the relative viability ([1]; first compound 0.253 µM) is reported as 0.529 and the relative viability ([1]; first compound 0.8 µM) is reported as 0.564. It also gave a relative viability ([1]; first compound 2.53 µM) of 0.542, a relative viability ([1]; first compound 8 µM) of 0.53 and a relative viability ([2]; first compound 0.08 µM) of 0.495. It also gave a relative viability ([2]; first compound 0.253 µM) of 0.435, a relative viability ([2]; first compound 0.8 µM) of 0.431 and a relative viability ([2]; first compound 2.53 µM) of 0.518. The relative viability ([2]; first compound 8 µM) was 0.37, the relative viability ([3]; first compound 0.08 µM) was 0.989 and the relative viability ([3]; first compound 0.253 µM) was 0.937. It also gave a relative viability ([3]; first compound 0.8 µM) of 0.956, a relative viability ([3]; first compound 2.53 µM) of 1.02 and a relative viability ([3]; first compound 8 µM) of 0.935. For the same cell line, the relative viability ([4]; first compound 0.08 µM) was 0.914, the relative viability ([4]; first compound 0.253 µM) was 0.874 and the relative viability ([4]; first compound 0.8 µM) was 0.969. The relative viability ([4]; first compound 2.53 µM) was 0.906 and the relative viability ([4]; first compound 8 µM) was 0.907.
Cell Line HOP-62 has a relative viability ([1]; first compound 0.08 µM) of 0.371, a relative viability ([1]; first compound 0.253 µM) of 0.324 and a relative viability ([1]; first compound 0.8 µM) of 0.345. The relative viability ([1]; first compound 2.53 µM) was 0.328, the relative viability ([1]; first compound 8 µM) was 0.266 and the relative viability ([2]; first compound 0.08 µM) was 0.454. The relative viability ([2]; first compound 0.253 µM) was 0.446, the relative viability ([2]; first compound 0.8 µM) was 0.497 and the relative viability ([2]; first compound 2.53 µM) was 0.447. The relative viability ([2]; first compound 8 µM) was 0.571, the relative viability ([3]; first compound 0.08 µM) was 0.865 and the relative viability ([3]; first compound 0.253 µM) was 1.01. It also gave a relative viability ([3]; first compound 0.8 µM) of 1.13, a relative viability ([3]; first compound 2.53 µM) of 1.11 and a relative viability ([3]; first compound 8 µM) of 1.01. It also gave a relative viability ([4]; first compound 0.08 µM) of 0.984, a relative viability ([4]; first compound 0.253 µM) of 0.706 and a relative viability ([4]; first compound 0.8 µM) of 1.03. It also gave a relative viability ([4]; first compound 2.53 µM) of 1.16 and a relative viability ([4]; first compound 8 µM) of 0.725.
For IA-LM, the relative viability ([3]; first compound 0.08 µM) was 0.74, the relative viability ([3]; first compound 0.8 µM) was 0.769 and the relative viability ([3]; first compound 2.53 µM) was 0.439. The relative viability ([3]; first compound 8 µM) was 0.401, the relative viability ([4]; first compound 0.08 µM) was 0.489 and the relative viability ([4]; first compound 0.253 µM) was 0.49. For the same cell line, the relative viability ([4]; first compound 0.8 µM) was 0.692, the relative viability ([4]; first compound 2.53 µM) was 0.308 and the relative viability ([4]; first compound 8 µM) was 0.549.
In the case of LC-2-ad, the relative viability ([1]; first compound 0.08 µM) is reported as 0.862, the relative viability ([1]; first compound 0.253 µM) is reported as 0.881 and the relative viability ([1]; first compound 0.8 µM) is reported as 0.826. It also gave a relative viability ([1]; first compound 2.53 µM) of 0.839, a relative viability ([1]; first compound 8 µM) of 0.8 and a relative viability ([2]; first compound 0.08 µM) of 0.469. The relative viability ([2]; first compound 0.253 µM) was 0.532, the relative viability ([2]; first compound 0.8 µM) was 0.466 and the relative viability ([2]; first compound 2.53 µM) was 0.542. For the same cell line, the relative viability ([2]; first compound 8 µM) was 0.436, the relative viability ([3]; first compound 0.08 µM) was 0.395 and the relative viability ([3]; first compound 0.253 µM) was 0.379. For the same cell line, the relative viability ([3]; first compound 0.8 µM) was 0.383, the relative viability ([3]; first compound 2.53 µM) was 0.464 and the relative viability ([3]; first compound 8 µM) was 0.278. For the same cell line, the relative viability ([4]; first compound 0.08 µM) was 0.764, the relative viability ([4]; first compound 0.253 µM) was 0.821 and the relative viability ([4]; first compound 0.8 µM) was 0.684. It also gave a relative viability ([4]; first compound 2.53 µM) of 0.788 and a relative viability ([4]; first compound 8 µM) of 0.739.
LCLC-97TM1 gave a relative viability ([1]; first compound 0.08 µM) of 0.185, a relative viability ([1]; first compound 0.253 µM) of 0.214 and a relative viability ([1]; first compound 0.8 µM) of 0.157. For the same cell line, the relative viability ([1]; first compound 2.53 µM) was 0.178, the relative viability ([1]; first compound 8 µM) was 0.185 and the relative viability ([2]; first compound 0.08 µM) was 0.172. For the same cell line, the relative viability ([2]; first compound 0.253 µM) was 0.216, the relative viability ([2]; first compound 0.8 µM) was 0.206 and the relative viability ([2]; first compound 2.53 µM) was 0.217. For the same cell line, the relative viability ([2]; first compound 8 µM) was 0.276, the relative viability ([3]; first compound 0.8 µM) was 0.641 and the relative viability ([3]; first compound 2.53 µM) was 0.385. It also gave a relative viability ([3]; first compound 8 µM) of 0.418, a relative viability ([4]; first compound 0.8 µM) of 0.212 and a relative viability ([4]; first compound 2.53 µM) of 0.207. The relative viability ([4]; first compound 8 µM) was 0.168.
LCLC-103H showed a relative viability ([1]; first compound 0.08 µM) of 0.629, a relative viability ([1]; first compound 0.253 µM) of 0.593 and a relative viability ([1]; first compound 0.8 µM) of 0.586. For the same cell line, the relative viability ([1]; first compound 2.53 µM) was 0.579, the relative viability ([1]; first compound 8 µM) was 0.658 and the relative viability ([2]; first compound 0.08 µM) was 0.402. It also gave a relative viability ([2]; first compound 0.253 µM) of 0.445, a relative viability ([2]; first compound 0.8 µM) of 0.477 and a relative viability ([2]; first compound 2.53 µM) of 0.406. The relative viability ([2]; first compound 8 µM) was 0.507, the relative viability ([4]; first compound 0.08 µM) was 0.942 and the relative viability ([4]; first compound 0.253 µM) was 0.967. It also gave a relative viability ([4]; first compound 0.8 µM) of 1.01, a relative viability ([4]; first compound 2.53 µM) of 1.24 and a relative viability ([4]; first compound 8 µM) of 1.03.
LK-2 was tested, and the relative viability ([1]; first compound 0.08 µM) was 0.817, the relative viability ([1]; first compound 0.253 µM) was 0.806 and the relative viability ([1]; first compound 0.8 µM) was 0.951. The relative viability ([1]; first compound 2.53 µM) was 0.772, the relative viability ([1]; first compound 8 µM) was 1.33 and the relative viability ([2]; first compound 0.253 µM) was 0.764. The relative viability ([2]; first compound 0.8 µM) was 0.675, the relative viability ([2]; first compound 2.53 µM) was 0.699 and the relative viability ([2]; first compound 8 µM) was 1.06. The relative viability ([3]; first compound 0.08 µM) was 0.917, the relative viability ([3]; first compound 0.253 µM) was 0.958 and the relative viability ([3]; first compound 0.8 µM) was 0.901. For the same cell line, the relative viability ([3]; first compound 8 µM) was 1.46, the relative viability ([4]; first compound 0.08 µM) was 0.581 and the relative viability ([4]; first compound 0.253 µM) was 0.778. The relative viability ([4]; first compound 0.8 µM) was 0.729, the relative viability ([4]; first compound 2.53 µM) was 0.413 and the relative viability ([4]; first compound 8 µM) was 0.427.
LOU-NH91 was tested, and the relative viability ([1]; first compound 0.08 µM) was 0.704, the relative viability ([1]; first compound 0.253 µM) was 0.734 and the relative viability ([1]; first compound 0.8 µM) was 0.721. The relative viability ([1]; first compound 2.53 µM) was 0.754, the relative viability ([1]; first compound 8 µM) was 0.728 and the relative viability ([2]; first compound 0.08 µM) was 0.571. It also gave a relative viability ([2]; first compound 0.253 µM) of 0.572, a relative viability ([2]; first compound 0.8 µM) of 0.547 and a relative viability ([2]; first compound 2.53 µM) of 0.54. For the same cell line, the relative viability ([2]; first compound 8 µM) was 0.545, the relative viability ([3]; first compound 0.08 µM) was 0.611 and the relative viability ([3]; first compound 0.253 µM) was 0.619. It also gave a relative viability ([3]; first compound 0.8 µM) of 0.625, a relative viability ([3]; first compound 2.53 µM) of 0.774 and a relative viability ([3]; first compound 8 µM) of 0.434. For the same cell line, the relative viability ([4]; first compound 0.08 µM) was 0.82, the relative viability ([4]; first compound 0.253 µM) was 0.925 and the relative viability ([4]; first compound 0.8 µM) was 0.903. For the same cell line, the relative viability ([4]; first compound 2.53 µM) was 0.979 and the relative viability ([4]; first compound 8 µM) was 0.769.

Reference: the supplement of paper PMC10307832
